Data from ChEMBL document CHEMBL4507266, “Data for DCP probe BAY-784” (2021).

What was measured:
[1] = target: Serine/threonine-protein kinase pim-3 (Homo sapiens) (UniProt Q86V86); settings: Compound concentration 1000.0 nM
[2] = tested on: Tyrosine-protein kinase ABL1 (Homo sapiens), P00519 [M351T]; settings: Compound concentration 1000.0 nM
[3] = target: Serine/threonine-protein kinase D2 (Homo sapiens) (UniProt Q9BZL6); settings: Compound concentration 1000.0 nM
[4] = tested on: Tyrosine-protein kinase ABL1 (Homo sapiens), P00519 [T315I]; settings: Compound concentration 1000.0 nM
[5] = target: Uncharacterized serine/threonine-protein kinase SBK3 (Homo sapiens) (UniProt P0C264); settings: Compound concentration 1000.0 nM
[6] = target: Phosphorylase b kinase regulatory subunit alpha, liver isoform (Homo sapiens) (UniProt P46019); settings: Compound concentration 1000.0 nM
[7] = tested on: Phosphatidylinositol 4,5-bisphosphate 3-kinase catalytic subunit alpha isoform (Homo sapiens), P42336 [Q546K]; settings: Compound concentration 1000.0 nM
[8] = target: Ephrin type-B receptor 6 (Homo sapiens) (UniProt O15197); settings: Compound concentration 1000.0 nM
[9] = target: Mitogen-activated protein kinase kinase kinase kinase 3 (Homo sapiens) (UniProt Q8IVH8); settings: Compound concentration 1000.0 nM
[10] = target: Activin receptor type-2B (Homo sapiens) (UniProt Q13705); settings: Compound concentration 1000.0 nM
[11] = target: Histamine H3 receptor (Homo sapiens) (UniProt Q9Y5N1); settings: Compound concentration 10.0 uM
[12] = target: Serine/threonine-protein kinase haspin (Homo sapiens) (UniProt Q8TF76); settings: Compound concentration 1000.0 nM
[13] = target: Serine/threonine-protein kinase PRP4 homolog (Homo sapiens) (UniProt Q13523); settings: Compound concentration 1000.0 nM
[14] = target: Serine/threonine-protein kinase TBK1 (Homo sapiens) (UniProt Q9UHD2); settings: Compound concentration 1000.0 nM
[15] = target: Interferon-induced, double-stranded RNA-activated protein kinase (Homo sapiens) (UniProt P19525); settings: Compound concentration 1000.0 nM
[16] = target: Protein kinase C delta type (Homo sapiens) (UniProt Q05655); settings: Compound concentration 1000.0 nM
[17] = target: Beta-1 adrenergic receptor (Homo sapiens) (UniProt P08588); settings: Compound concentration 10.0 uM
[18] = target: Ribosomal protein S6 kinase alpha-6 (Homo sapiens) (UniProt Q9UK32); settings: Compound concentration 1000.0 nM
[19] = target: Hepatocyte growth factor receptor (Homo sapiens) (UniProt P08581); settings: Compound concentration 1000.0 nM
[20] = tested on: Receptor-type tyrosine-protein kinase FLT3 (Homo sapiens), P36888 [UNDEFINED MUTATION]; settings: Compound concentration 1000.0 nM
[21] = tested on: Mast/stem cell growth factor receptor Kit (Homo sapiens), P10721 [V559D,T670I]; settings: Compound concentration 1000.0 nM
[22] = target: Protein kinase C eta type (Homo sapiens) (UniProt P24723); settings: Compound concentration 1000.0 nM
[23] = target: Dual specificity mitogen-activated protein kinase kinase 7 (Homo sapiens) (UniProt O14733); settings: Compound concentration 1000.0 nM
[24] = target: Activated CDC42 kinase 1 (Homo sapiens) (UniProt Q07912); settings: Compound concentration 1000.0 nM
[25] = target: Serine/threonine-protein kinase 36 (Homo sapiens) (UniProt Q9NRP7); settings: Compound concentration 1000.0 nM
[26] = target: Mitogen-activated protein kinase kinase kinase 13 (Homo sapiens) (UniProt O43283); settings: Compound concentration 1000.0 nM
[27] = tested on: Hepatocyte growth factor receptor (Homo sapiens), P08581 [Y1235D]; settings: Compound concentration 1000.0 nM
[28] = target: Ribosomal protein S6 kinase alpha-2 (Homo sapiens) (UniProt Q15349); settings: Compound concentration 1000.0 nM
[29] = target: Mitogen-activated protein kinase kinase kinase kinase 4 (Homo sapiens) (UniProt O95819); settings: Compound concentration 1000.0 nM
[30] = target: Vascular endothelial growth factor receptor 3 (Homo sapiens) (UniProt P35916); settings: Compound concentration 1000.0 nM
[31] = target: Casein kinase I isoform epsilon (Homo sapiens) (UniProt P49674); settings: Compound concentration 1000.0 nM
[32] = target: Tyrosine-protein kinase Fes/Fps (Homo sapiens) (UniProt P07332); settings: Compound concentration 1000.0 nM
[33] = target: Ephrin type-A receptor 5 (Homo sapiens) (UniProt P54756); settings: Compound concentration 1000.0 nM
[34] = target: Testis-specific serine/threonine-protein kinase 3 (Homo sapiens) (UniProt Q96PN8); settings: Compound concentration 1000.0 nM
[35] = target: Serine/threonine-protein kinase MRCK beta (Homo sapiens) (UniProt Q9Y5S2); settings: Compound concentration 1000.0 nM
[36] = target: TGF-beta receptor type-1 (Homo sapiens) (UniProt P36897); settings: Compound concentration 1000.0 nM
[37] = target: Glutamate receptor 2 (Homo sapiens) (UniProt P42262); settings: Rattus norvegicus; Compound concentration 10.0 uM
[38] = target: Polyunsaturated fatty acid lipoxygenase ALOX15 (Homo sapiens) (UniProt P16050); assay: Inhibition of Lipoxygenase 15-LO at 10 µM in the Eurofins-Panlabs enzyme assay (Eurofins_assay_138000); settings: Oryctolagus cuniculus; Compound concentration 10.0 uM
Bacteria = assay: Inhibition of Beta-Lactamase at 10 µM in the Eurofins-Panlabs enzyme assay (Eurofins_assay_126000); assay type: protein-complex assay; set-up: substrate with concentration; settings: Compound concentration 10.0 uM

Chain of Histamine H3 receptor (Homo sapiens) (Q9Y5N1 whole entry): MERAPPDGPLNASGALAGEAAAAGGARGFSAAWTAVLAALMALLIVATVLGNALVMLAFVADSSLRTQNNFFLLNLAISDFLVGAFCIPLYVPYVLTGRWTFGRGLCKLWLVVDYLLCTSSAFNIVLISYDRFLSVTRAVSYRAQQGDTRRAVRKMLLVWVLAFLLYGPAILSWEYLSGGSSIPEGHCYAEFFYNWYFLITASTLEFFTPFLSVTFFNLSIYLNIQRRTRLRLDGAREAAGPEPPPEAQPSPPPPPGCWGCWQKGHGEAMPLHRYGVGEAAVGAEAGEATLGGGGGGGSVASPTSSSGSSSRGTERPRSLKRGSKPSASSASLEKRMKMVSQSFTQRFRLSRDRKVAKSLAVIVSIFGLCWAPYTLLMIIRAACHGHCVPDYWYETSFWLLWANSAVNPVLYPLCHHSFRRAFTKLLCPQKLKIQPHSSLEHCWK
Chain of Mitogen-activated protein kinase kinase kinase kinase 4 (Homo sapiens) (O95819 2-1239 limits assumed): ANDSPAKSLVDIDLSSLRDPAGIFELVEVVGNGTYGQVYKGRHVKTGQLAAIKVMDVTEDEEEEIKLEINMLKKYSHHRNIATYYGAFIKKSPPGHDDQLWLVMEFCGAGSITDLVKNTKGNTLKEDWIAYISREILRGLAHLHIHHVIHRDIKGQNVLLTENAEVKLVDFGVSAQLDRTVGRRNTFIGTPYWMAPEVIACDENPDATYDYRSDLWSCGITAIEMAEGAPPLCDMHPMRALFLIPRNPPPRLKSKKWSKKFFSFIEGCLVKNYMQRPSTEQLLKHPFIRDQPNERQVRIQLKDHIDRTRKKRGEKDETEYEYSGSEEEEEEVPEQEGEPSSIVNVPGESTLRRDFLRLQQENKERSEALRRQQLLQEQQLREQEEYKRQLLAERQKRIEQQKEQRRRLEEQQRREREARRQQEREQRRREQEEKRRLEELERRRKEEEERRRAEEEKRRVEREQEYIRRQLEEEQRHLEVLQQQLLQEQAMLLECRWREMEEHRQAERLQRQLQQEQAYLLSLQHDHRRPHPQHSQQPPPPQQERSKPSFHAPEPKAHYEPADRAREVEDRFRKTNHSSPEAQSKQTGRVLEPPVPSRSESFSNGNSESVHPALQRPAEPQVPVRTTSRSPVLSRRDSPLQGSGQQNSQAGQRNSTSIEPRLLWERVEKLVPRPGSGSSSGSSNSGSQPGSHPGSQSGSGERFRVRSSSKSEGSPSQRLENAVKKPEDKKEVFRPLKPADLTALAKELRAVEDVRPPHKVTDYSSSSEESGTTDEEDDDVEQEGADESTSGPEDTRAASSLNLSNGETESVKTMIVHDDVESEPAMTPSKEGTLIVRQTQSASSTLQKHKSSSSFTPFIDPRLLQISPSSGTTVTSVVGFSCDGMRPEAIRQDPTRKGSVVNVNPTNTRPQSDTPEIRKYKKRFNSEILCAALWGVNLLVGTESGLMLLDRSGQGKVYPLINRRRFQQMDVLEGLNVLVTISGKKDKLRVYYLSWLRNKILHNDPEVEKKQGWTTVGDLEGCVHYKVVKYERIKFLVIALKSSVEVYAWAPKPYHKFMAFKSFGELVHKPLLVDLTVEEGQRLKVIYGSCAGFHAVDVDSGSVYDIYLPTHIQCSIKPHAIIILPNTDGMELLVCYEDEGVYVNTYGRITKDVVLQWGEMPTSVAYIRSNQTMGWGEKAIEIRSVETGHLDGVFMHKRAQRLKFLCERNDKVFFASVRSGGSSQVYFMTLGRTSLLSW
Chain of Serine/threonine-protein kinase haspin (Homo sapiens) (Q8TF76 whole entry): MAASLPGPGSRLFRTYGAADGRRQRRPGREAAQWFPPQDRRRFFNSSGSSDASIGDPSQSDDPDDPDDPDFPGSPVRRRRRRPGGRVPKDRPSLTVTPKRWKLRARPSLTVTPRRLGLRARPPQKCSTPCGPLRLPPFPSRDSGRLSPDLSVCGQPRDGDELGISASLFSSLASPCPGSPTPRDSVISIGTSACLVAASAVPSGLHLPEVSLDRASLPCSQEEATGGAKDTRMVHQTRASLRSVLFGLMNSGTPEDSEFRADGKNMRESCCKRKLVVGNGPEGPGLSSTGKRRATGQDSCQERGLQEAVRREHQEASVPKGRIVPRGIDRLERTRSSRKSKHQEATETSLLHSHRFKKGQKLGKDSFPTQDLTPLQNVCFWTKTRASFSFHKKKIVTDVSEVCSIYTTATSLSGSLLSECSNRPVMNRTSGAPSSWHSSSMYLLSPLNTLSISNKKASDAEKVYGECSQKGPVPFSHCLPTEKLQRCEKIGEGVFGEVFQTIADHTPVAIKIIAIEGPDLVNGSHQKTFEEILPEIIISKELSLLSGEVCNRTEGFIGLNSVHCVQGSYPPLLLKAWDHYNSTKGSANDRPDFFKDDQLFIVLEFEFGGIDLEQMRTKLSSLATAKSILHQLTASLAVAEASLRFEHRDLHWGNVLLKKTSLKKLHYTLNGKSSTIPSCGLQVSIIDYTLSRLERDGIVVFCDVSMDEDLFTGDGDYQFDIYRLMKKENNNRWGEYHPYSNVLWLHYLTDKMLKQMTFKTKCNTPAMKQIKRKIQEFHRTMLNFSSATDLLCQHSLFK
Chain of Casein kinase I isoform epsilon (Homo sapiens) (P49674 whole entry, looked up, canonical isoform): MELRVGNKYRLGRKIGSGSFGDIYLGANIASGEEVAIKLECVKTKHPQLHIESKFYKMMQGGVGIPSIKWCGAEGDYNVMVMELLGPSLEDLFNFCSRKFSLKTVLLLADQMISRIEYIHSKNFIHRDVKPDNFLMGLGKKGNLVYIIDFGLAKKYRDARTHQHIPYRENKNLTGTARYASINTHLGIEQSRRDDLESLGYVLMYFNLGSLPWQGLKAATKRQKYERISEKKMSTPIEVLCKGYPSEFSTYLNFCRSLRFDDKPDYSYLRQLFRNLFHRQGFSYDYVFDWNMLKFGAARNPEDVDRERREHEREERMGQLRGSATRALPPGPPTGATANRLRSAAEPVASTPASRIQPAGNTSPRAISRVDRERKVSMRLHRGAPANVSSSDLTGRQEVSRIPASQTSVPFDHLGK
Chain of Serine/threonine-protein kinase TBK1 (Homo sapiens) (Q9UHD2 whole entry): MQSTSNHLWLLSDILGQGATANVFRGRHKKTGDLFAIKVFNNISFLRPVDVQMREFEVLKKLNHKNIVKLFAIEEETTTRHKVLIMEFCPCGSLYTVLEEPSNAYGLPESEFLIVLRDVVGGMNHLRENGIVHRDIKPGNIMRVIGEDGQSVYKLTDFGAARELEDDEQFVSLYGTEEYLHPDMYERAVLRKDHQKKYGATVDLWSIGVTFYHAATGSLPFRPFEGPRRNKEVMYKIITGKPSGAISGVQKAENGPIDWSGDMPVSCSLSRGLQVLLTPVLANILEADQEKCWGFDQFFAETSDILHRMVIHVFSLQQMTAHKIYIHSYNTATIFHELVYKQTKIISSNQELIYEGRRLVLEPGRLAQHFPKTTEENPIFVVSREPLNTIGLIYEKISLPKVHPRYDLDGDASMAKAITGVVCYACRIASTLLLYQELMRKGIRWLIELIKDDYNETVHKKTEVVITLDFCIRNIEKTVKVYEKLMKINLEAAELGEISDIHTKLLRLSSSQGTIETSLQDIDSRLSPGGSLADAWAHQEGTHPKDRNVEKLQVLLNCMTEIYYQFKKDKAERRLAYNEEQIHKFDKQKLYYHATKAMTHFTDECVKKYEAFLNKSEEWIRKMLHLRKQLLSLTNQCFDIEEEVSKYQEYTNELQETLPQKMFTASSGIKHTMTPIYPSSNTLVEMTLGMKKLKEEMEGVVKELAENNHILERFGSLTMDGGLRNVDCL
Chain of Ribosomal protein S6 kinase alpha-6 (Homo sapiens) (Q9UK32 whole entry): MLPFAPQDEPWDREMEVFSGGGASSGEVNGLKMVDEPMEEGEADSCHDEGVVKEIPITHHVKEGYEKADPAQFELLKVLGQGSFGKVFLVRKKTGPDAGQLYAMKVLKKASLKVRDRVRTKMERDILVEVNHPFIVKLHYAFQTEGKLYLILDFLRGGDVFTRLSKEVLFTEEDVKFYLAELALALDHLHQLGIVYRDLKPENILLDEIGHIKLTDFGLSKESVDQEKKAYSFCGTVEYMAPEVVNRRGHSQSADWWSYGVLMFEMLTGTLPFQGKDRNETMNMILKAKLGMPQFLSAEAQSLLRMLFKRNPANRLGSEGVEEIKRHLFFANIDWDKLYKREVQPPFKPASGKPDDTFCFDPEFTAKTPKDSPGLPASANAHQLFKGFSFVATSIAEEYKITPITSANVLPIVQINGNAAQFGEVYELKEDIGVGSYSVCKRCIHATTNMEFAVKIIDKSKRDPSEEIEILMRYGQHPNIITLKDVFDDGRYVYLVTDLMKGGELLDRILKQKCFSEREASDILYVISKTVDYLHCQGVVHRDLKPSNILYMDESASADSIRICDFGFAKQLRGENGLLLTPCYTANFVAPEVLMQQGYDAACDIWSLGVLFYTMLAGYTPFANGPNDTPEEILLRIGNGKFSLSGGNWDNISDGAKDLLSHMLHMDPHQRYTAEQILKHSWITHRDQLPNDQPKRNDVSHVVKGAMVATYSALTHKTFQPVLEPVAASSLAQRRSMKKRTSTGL
Chain of Protein kinase C eta type (Homo sapiens) (P24723 whole entry): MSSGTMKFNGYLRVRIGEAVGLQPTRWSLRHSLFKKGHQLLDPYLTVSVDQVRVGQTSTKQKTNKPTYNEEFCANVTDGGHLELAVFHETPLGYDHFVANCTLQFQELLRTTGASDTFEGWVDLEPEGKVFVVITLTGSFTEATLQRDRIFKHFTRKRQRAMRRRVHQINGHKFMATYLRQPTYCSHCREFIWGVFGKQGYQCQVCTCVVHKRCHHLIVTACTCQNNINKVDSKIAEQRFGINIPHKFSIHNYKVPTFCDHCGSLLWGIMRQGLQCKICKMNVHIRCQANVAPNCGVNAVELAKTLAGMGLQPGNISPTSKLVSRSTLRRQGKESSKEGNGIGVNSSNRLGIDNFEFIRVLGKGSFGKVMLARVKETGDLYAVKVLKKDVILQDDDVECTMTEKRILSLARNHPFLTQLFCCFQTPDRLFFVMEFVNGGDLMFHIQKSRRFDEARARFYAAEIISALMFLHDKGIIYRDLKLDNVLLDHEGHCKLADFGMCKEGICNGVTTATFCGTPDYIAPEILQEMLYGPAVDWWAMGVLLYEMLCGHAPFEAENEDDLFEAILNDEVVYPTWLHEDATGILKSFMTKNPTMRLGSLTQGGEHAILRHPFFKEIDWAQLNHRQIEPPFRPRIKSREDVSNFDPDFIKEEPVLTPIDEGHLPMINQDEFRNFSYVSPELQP

| SMILES | residual activity [1] | residual activity [2] | residual activity [3] | residual activity [4] | residual activity [5] | residual activity [6] | residual activity [7] | residual activity [8] | residual activity [9] | residual activity [10] | inhibition [11] | residual activity [12] | residual activity [13] | residual activity [14] | residual activity [15] | residual activity [16] | inhibition [17] | residual activity [18] | residual activity [19] | residual activity [20] | also measured |
| --- | --- | --- | --- | --- | --- | --- | --- | --- | --- | --- | --- | --- | --- | --- | --- | --- | --- | --- | --- | --- | --- |
| O=C(NCc1ncc(C(F)(F)F)cc1Cl)c1ccc2c(c1)C1(CCS(=O)(=O)CC1)[C@@H](C1CC1)N2S(=O)(=O)c1ccc(F)cc1 [BAY-786] | 85% | 94% | 90% | 84% | 100% | 84% | 72% | 94% | 100% | 100% | 6.92% | 77% | 84% | 84% | 97% | 100% | -1.82% | 84% | 81% | 58% | residual activity [21]: 87%; residual activity [22]: 96%; residual activity [23]: 79%; residual activity [24]: 84%; residual activity [25]: 100%; residual activity [26]: 0%; residual activity [27]: 100%; residual activity [28]: 100%; residual activity [29]: 100%; residual activity [30]: 100%; residual activity [31]: 100%; residual activity [32]: 93%; residual activity [33]: 77%; residual activity [34]: 97%; residual activity [35]: 100%; residual activity [36]: 84% |
| O=C(NCc1ncc(C(F)(F)F)cc1Cl)c1ccc2c(c1)C1(CCS(=O)(=O)CC1)[C@H](C1CC1)N2S(=O)(=O)c1ccc(F)cc1 [BAY-784] | 100% | 91% | 98% | 90% | 100% | 96% | 76% | 80% | 100% | 90% | -8.26% | 87% | 100% | 80% | 100% | 100% | -0.08% | 78% | 100% | 76% | inhibition [37]: 2%; inhibition [38]: 11%; residual activity [21]: 100%; inhibition (Bacteria): 4%; residual activity [22]: 100%; residual activity [23]: 72%; residual activity [24]: 85%; residual activity [25]: 100%; residual activity [26]: 0%; residual activity [27]: 100%; residual activity [28]: 99%; residual activity [29]: 91%; residual activity [30]: 92%; residual activity [31]: 100%; residual activity [32]: 100%; residual activity [33]: 100%; residual activity [34]: 87%; residual activity [35]: 100%; residual activity [36]: 100% |
